How the values were obtained:
[1] = molecular target: T1, hnRNP A1 (Homo sapiens, UniProt P09651); assay: Photo-cross-linked inhibitor bead binding assay; details: vs control beads, anti-GST immunoblot
T1 construct: pGEX-2T/hnRNP A1 (full length hnRNP A1) and pGEX-2T/UP1 GST fusions; made in house; host or cells: HEK293 cells
Procedure: (§1) Photo-cross-linked C11 and IRES-J007 beads were prepared as previously described (25). Activated Sepharose beads were washed three times with 1 mM aqueous HCl followed by coupling solution (100 mM NaHCO3 and 50% dioxane mixture). A solution of photoaffinity linker in coupling solution was subsequently added to the beads and incubated at 37° C. for 2 h. After washing five times with coupling solution the beads were blocked and placed in a spin column and washed three times with water and methanol. The beads were subsequently irradiated in a UV cross-linker at 365 nm (4 J/cm2) and washed with methanol. Purified GST-tagged native or mutant hnRNP A1 proteins were added to 20 μl of C11 or J007 cross-linked or control uncross-linked beads. After incubating at 4° C. for 24 h, the beads were washed three times and bound proteins eluted in 10% SDS-PAGE sample buffer at 100° C. for 5 min. and the eluted proteins were resolved by SDS-PAGE and immunoblotted using GST antibodies.
(§2) The configurations with the most favorable binding energies were visualized using PyMOL v1.5.6. The electrostatic surface representation of the crystal structure of UP1 is shown with RNP residues of RRM1 and RRM2 labeled in blue. In the 90°-rotated model, the inhibitor interaction pocket is shown in yellow. The inset is a close-up of C11 and IRES-J007 binding to the potential binding site on UP1. Residues predicted to interact with the inhibitors are labeled. (B) Purified GST-tagged wild-type hnRNP A1 (A1) and mutant A1 (4ΔA1) proteins harboring alanine substitutions at all four potential binding sites (120, 123,124 and 171) were added to uncross-linked, C11 and J007-cross-linked beads. Isolated wild-type (A1) and mutant (4ΔA1) proteins were resolved by SDS-PAGE and silver-stained to monitor purity (top panels). The binding of A1 to control, C11 and J007 beads was detected by immunoblotting with GST antibodies (bottom panel). (C) Inhibition of basal IRES activity in 293T cells upon treatment with C11 or IRES-J007. IRES reporter activity was assessed following 24 h treatment with 50 nM concentrations of each inhibitor as indicated. The mean and +SD are shown for three independent experiments. (D) RNA-pull down assays utilizing biotinylated cyclin D1 or c-MYC IRES RNAs of 293T cell extracts treated with the inhibitors as in FIG. 2C.
(§3) To further examine how C11 and IRES-J007 inhibit hnRNP A1 function, used in silico docking analysis was used to create a potential model for the binding of these inhibitors to UP1. […] The purified proteins were then incubated with control, C11 or J007 beads and binding analyzed by immunoblotting using anti-GST antibodies. […]

[2] = molecular target: T2, hnRNP A1 (Homo sapiens, UniProt P09651, D123A/H120A/N171A/Y124A); assay: Photo-cross-linked inhibitor bead binding assay; details: alanine substitutions at 120, 123, 124 and 171
T2 construct: pGEX-2T/hnRNP A1 (full length hnRNP A1) and pGEX-2T/UP1 GST fusions; made in house; host or cells: HEK293 cells
T2 sequence (P09651 whole entry H120A/D123A/Y124A/N171A, the tested form may be a part): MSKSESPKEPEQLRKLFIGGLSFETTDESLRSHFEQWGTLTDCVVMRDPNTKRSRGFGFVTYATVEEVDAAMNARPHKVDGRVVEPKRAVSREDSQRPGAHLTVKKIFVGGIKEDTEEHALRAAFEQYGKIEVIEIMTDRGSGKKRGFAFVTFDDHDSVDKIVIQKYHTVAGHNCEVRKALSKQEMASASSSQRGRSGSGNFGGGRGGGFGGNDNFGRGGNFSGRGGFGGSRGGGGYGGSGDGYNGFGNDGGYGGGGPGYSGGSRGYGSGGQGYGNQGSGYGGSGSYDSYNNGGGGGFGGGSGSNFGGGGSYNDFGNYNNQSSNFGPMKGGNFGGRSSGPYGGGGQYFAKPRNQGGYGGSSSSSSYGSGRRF
Procedure: as §1, §2, §3

T1 sequence (P09651 whole entry, the tested form may be a part): as the sequence (P09651 whole entry H120A/D123A/Y124A/N171A, the tested form may be a part) above, with A120H, A123D, A124Y, A171N counted along it

Structure (SMILES)	binding of native GST-tagged hnRNP A1 to inhibitor-cross-linked beads [1]	amount of mutant hnRNP A1 (4ΔA1) bound to inhibitor beads relative to native hnRNP A1 [2]
COc1ccc(CN2C(=O)C(Cl)=C(Cl)C2=O)c(OC)c1 [Compound C11, reference compound]	bound	markedly reduced
COc1ccc(CN2C(=O)c3ccccc3C2=O)c(OC)c1 [IRES-J007, 2-((2,4-Dimethoxyphenyl)methyl)isoindoline-1,3-dione]	bound	markedly reduced
